The values below come from US20130123460A1, “PEPTIDE FOR IMPROVING BIOSTABILITY OF BIOACTIVE SUBSTANCE, AND BIOACTIVE SUBSTANCE HAVING IMPROVED BIOSTABILITY” (priority 2010, published 2013).

A short description of series [1]: Plasma stability of GLP-1 peptide complex (remaining rate in rat plasma, HPLC/MS). The series is classed as in vitro ADME, SD rats. To be noted: for remaining at 8 h, 0.5 μmol/L / remaining at 48 h, 0.5 μmol/L: SD.
Source text: SD rats were anesthetized with diethyl ether, whole blood was collected and a plasma fraction was separated therefrom.
The target in series [2] is T1, endogenous GLP-1 receptor (Mus musculus, UniProt O35659).
T1 construct: expressing an endogenous GLP-1 receptor; endogenous in cells; host or cells: MIN 6 mouse insulinoma cells (obtained from a person)
T1 sequence (O35659 22-463): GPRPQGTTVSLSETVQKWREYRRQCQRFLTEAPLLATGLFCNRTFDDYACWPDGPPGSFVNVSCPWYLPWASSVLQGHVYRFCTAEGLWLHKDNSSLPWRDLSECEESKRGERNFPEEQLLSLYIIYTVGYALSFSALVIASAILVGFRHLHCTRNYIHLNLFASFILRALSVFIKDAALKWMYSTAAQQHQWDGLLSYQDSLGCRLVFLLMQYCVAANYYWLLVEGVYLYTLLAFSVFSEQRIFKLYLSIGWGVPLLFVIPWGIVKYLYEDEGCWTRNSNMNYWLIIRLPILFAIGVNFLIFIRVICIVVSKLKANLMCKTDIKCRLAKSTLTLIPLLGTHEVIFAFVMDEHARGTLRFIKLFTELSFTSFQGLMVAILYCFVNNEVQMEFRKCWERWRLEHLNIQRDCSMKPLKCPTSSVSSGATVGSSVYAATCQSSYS
The series can be described thus: Insulin secretion capacity of GLP-1 peptide complex in MIN 6 cells.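 On all read-outs here: insulin released into the supernatant of MIN 6 cultures quantified by ELISA, absorbance read at 450 nm with 620 nm reference after substrate addition.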 The series is classed as cell-based. To be noted: for Insulin secretion capacity (% of control): MIN 6 cells, 1000 pM, 15 mM glucose, control = native GLP-1 at 1000 pM.
Procedure: MIN 6 was seeded on a multi-plate, which was cultivated at 37° C. for 48 hours. After that, the culture was washed twice with a KRH buffer solution including 2 mM glucose solution (including NaCl 119 mM, KCl 4.74 mM, CaCl2 2.54 mM, MgCl2 1.19 mM, KH2PO4 1.19 mM, 10 mM HEPES buffer solution pH7.3, and 0.1% BSA), and then it was incubated at 37° C. for one hour. […] A supernatant thereof was recovered, and an amount of insulin secreted was measured. The measurement of the insulin was performed in an enzyme-linked immunosorbent assay (ELISA), and an absorbance was measured at 450 nm (a sub-wavelength: 620 nm) after the addition of a substrate.
EC50 values thereof were calculated in the same manner as in Part 2, and the influence on the bioactivity caused by the addition of the partial peptide of the GA module were inspected in detail.
The analysis was performed using the following calculation formula.

Where two headings read alike, the source gives them in different places. Where no end group is shown, it is not given here.

As a reminder, the fraction remaining is the share of the starting amount still present when the sample was taken. `CC[C@H](C)[C@H](NC(=O)[C@H](CCC(=O)O)NC(=O)[C@H](CC(=O)O)NC(=O)[C@@H](NC(=O)CNC(=O)[C@H](CCCCN)NC(=O)[C@@H](NC(=O)[C@H](CC(C)C)NC(=O)[C@H](Cc1c[nH]c2ccccc12)NC(=O)[C@H](C)NC(=O)[C@@H](NC(=O)[C@H](Cc1ccccc1)NC(=O)[C@H](CCC(=O)O)NC(=O)[C@H](CCCCN)NC(=O)[C@H](C)NC(=O)[C@H](C)NC(=O)[C@H](CCC(N)=O)NC(=O)CNC(=O)[C@H](CCC(=O)O)NC(=O)[C@H](CC(C)C)NC(=O)[C@H](Cc1ccc(O)cc1)NC(=O)[C@H](CO)NC(=O)[C@H](CO)NC(=O)[C@@H](NC(=O)[C@H](CC(=O)O)NC(=O)[C@H](CO)NC(=O)[C@@H](NC(=O)[C@H](Cc1ccccc1)NC(=O)[C@@H](NC(=O)CNC(=O)[C@H](CCC(=O)O)NC(=O)[C@H](C)NC(=O)[C@@H](N)Cc1c[nH]cn1)[C@@H](C)O)[C@@H](C)O)C(C)C)[C@@H](C)CC)C(C)C)[C@@H](C)CC)C(N)=O` [Comparative Example 10, GLP-1(7-35)-GAm(38-41)-NH2, reference compound]: in series [1] (rat, plasma), the amount remaining at 8 h, 0.5 μmol/L came out at 35% and the share remaining at 48 h, 0.5 μmol/L came to 0%.
In series [1] (rat, plasma), “HAEGTFTSDVSSYLEGQAAKEFIAWLVKGGVKALIDEILA-NH2 [Example 7, GLP-1(7-35)-GAm(33-43)-NH2]” had an amount remaining at 8 h, 0.5 μmol/L of 94% and a share remaining at 48 h, 0.5 μmol/L of 87%. Further, in series [2], the “Insulin secretion capacity (% of control)” value turned out to be 105%.
“HSEGTFTSDVSSYLEGQAAKEFIAWLVKGKNLINNAKTVEGVKALIDEILAALP-NH2 [Example 17, [Ser8]-GLP-1(7-35)-GAm(22-46)-NH2]”: in series [1] (rat, plasma), the fraction remaining at 8 h, 0.5 μmol/L came to 80% and the amount remaining at 48 h, 0.5 μmol/L came to 93%.
Turning to “GLP-1(7-36)-NH2 [Comparative Example 1, reference compound]”, in series [2], the “Insulin secretion capacity (% of control)” value came out at 100%.
Turning to `CC[C@H](C)[C@H](NC(=O)[C@H](Cc1ccccc1)NC(=O)[C@H](CCC(=O)O)NC(=O)[C@H](CCCCN)NC(=O)[C@H](C)NC(=O)[C@H](C)NC(=O)[C@H](CCC(N)=O)NC(=O)CNC(=O)[C@H](CCC(=O)O)NC(=O)[C@H](CC(C)C)NC(=O)[C@H](Cc1ccc(O)cc1)NC(=O)[C@H](CO)NC(=O)[C@H](CO)NC(=O)[C@@H](NC(=O)[C@H](CC(=O)O)NC(=O)[C@H](CO)NC(=O)[C@@H](NC(=O)[C@H](Cc1ccccc1)NC(=O)[C@@H](NC(=O)CNC(=O)[C@H](CCC(=O)O)NC(=O)[C@H](CO)NC(=O)[C@@H](N)Cc1c[nH]cn1)[C@@H](C)O)[C@@H](C)O)C(C)C)C(=O)N[C@@H](C)C(=O)N[C@@H](Cc1c[nH]c2ccccc12)C(=O)N[C@@H](CC(C)C)C(=O)N[C@H](C(=O)N[C@@H](CCCCN)C(=O)NCC(=O)N[C@@H](CC(=O)O)C(=O)N[C@@H](CCC(=O)O)C(=O)N[C@H](C(=O)N[C@@H](CC(C)C)C(=O)N[C@@H](C)C(=O)N[C@@H](C)C(N)=O)[C@@H](C)CC)C(C)C` [Comparative Example 9, [Ser8]-GLP-1(7-35)-GAm(39-44)-NH2, reference compound], in series [1] (rat, plasma), the fraction remaining at 8 h, 0.5 μmol/L is 63% and the share remaining at 48 h, 0.5 μmol/L was found to be 0%.
On the same counts, the results for `CC[C@H](C)[C@H](NC(=O)CNC(=O)[C@H](CCCCN)NC(=O)[C@@H](NC(=O)[C@H](CC(C)C)NC(=O)[C@H](Cc1c[nH]c2ccccc12)NC(=O)[C@H](C)NC(=O)[C@@H](NC(=O)[C@H](Cc1ccccc1)NC(=O)[C@H](CCC(=O)O)NC(=O)[C@H](CCCCN)NC(=O)[C@H](C)NC(=O)[C@H](C)NC(=O)[C@H](CCC(N)=O)NC(=O)CNC(=O)[C@H](CCC(=O)O)NC(=O)[C@H](CC(C)C)NC(=O)[C@H](Cc1ccc(O)cc1)NC(=O)[C@H](CO)NC(=O)[C@H](CO)NC(=O)[C@@H](NC(=O)[C@H](CC(=O)O)NC(=O)[C@H](CO)NC(=O)[C@@H](NC(=O)[C@H](Cc1ccccc1)NC(=O)[C@@H](NC(=O)CNC(=O)[C@H](CCC(=O)O)NC(=O)[C@H](C)NC(=O)[C@@H](N)Cc1c[nH]cn1)[C@@H](C)O)[C@@H](C)O)C(C)C)[C@@H](C)CC)C(C)C)C(=O)N[C@@H](CC(=O)O)C(=O)N[C@@H](CCC(=O)O)C(N)=O` [Comparative Example 11, GLP-1(7-35)-GAm(38-40)-NH2, reference compound] are 0% and 0%.
Take “[Ser8]-GLP-1(7-35)-GAm(32-44)-NH2 [Example 10]”: the “Insulin secretion capacity (% of control)” value in series [2] worked out at 109%.
For the molecule `CC[C@H](C)[C@H](NC(=O)[C@H](Cc1ccccc1)NC(=O)[C@H](CCC(=O)O)NC(=O)[C@H](CCCCN)NC(=O)[C@H](C)NC(=O)[C@H](C)NC(=O)[C@H](CCC(N)=O)NC(=O)CNC(=O)[C@H](CCC(=O)O)NC(=O)[C@H](CC(C)C)NC(=O)[C@H](Cc1ccc(O)cc1)NC(=O)[C@H](CO)NC(=O)[C@H](CO)NC(=O)[C@@H](NC(=O)[C@H](CC(=O)O)NC(=O)[C@H](CO)NC(=O)[C@@H](NC(=O)[C@H](Cc1ccccc1)NC(=O)[C@@H](NC(=O)CNC(=O)[C@H](CCC(=O)O)NC(=O)CNC(=O)[C@@H](N)Cc1c[nH]cn1)[C@@H](C)O)[C@@H](C)O)C(C)C)C(=O)N[C@@H](C)C(=O)N[C@@H](Cc1c[nH]c2ccccc12)C(=O)N[C@@H](CC(C)C)C(=O)N[C@H](C(=O)N[C@@H](CCCCN)C(=O)NCC(=O)N[C@@H](CCCNC(=N)N)C(=O)N1CCC[C@H]1C(=O)N[C@@H](CO)C(=O)N[C@@H](CO)C(N)=O)C(C)C` [Comparative Example 12, [Gly8]-GLP-1(7-35)-RPSS-NH2, reference compound], the share remaining at 8 h, 0.5 μmol/L in series [1] (rat plasma, 0.5 μmol/L, 37° C., 8 hours, relative to 0 hour = 100%, read-out: Remaining rate in plasma after 8 hours (%)) was 34%. The share remaining at 48 h, 0.5 μmol/L in series [1] (rat plasma, 0.5 μmol/L, 37° C., 48 hours, relative to 0 hour = 100%, read-out: Remaining rate in plasma after 48 hours (%)) was 0%. The “Remaining rate in plasma after 48 hours (%)” value in series [1] (rat plasma, 0.5 μmol/L, 37° C., 48 hours, relative to 0 hour = 100%) is 0%.
Consider “HSEGTFTSDVSSYLEGQAAKEFIAWLVKGAKTVEGVKALIDE-NH2 [Comparative Example 7, [Ser8]-GLP-1(7-35)-GAm(28-40)-NH2, reference compound]”, for which, in series [1] (rat, plasma), the share remaining at 8 h, 0.5 μmol/L is 81% and the amount remaining at 48 h, 0.5 μmol/L was 4%.
The matching figures for “HSEGTFTSDVSSYLEEEAAKEFIAWLVKGGPSSGAPPPS-NH2 [Comparative Example 13, reference compound]”: 57% and 12%.
As for “[Ser8]-GLP-1(7-35)-GAm(38-44)-NH2 [Example 2]”, the “Insulin secretion capacity (% of control)” value in series [2] came to 120%.
Regarding “HSEGTFTSDVSSYLEGQAAKEFIAWLVKGAKTVEGVKAL-NH2 [Comparative Example 8, [Ser8]-GLP-1(7-35)-GAm(28-37)-NH2, reference compound]”, in series [1] (rat, plasma), the share remaining at 8 h, 0.5 μmol/L was 27% and the amount remaining at 48 h, 0.5 μmol/L was determined as 0%.
Turning to “[Ser8]-GLP-1(7-35)-GAm(38-42)-NH2 [Example 1]”, in series [2], the “Insulin secretion capacity (% of control)” value is recorded as 125%.
Turning to “[Ser8]-GLP-1(7-35)-GAm(28-44)-NH2 [Example 14]”, the “Insulin secretion capacity (% of control)” value in series [2] is on record as 105%. In addition, the “Insulin secretion capacity (activity) compared with native GLP-1, in words” value in series [2] (MIN 6 cells, 30, 100, 300 or 1000 pM (FIG. 2, FIG. 3)) is recorded as “almost the same activity as that of the native GLP-1”.
